Three compounds from ChEMBL document CHEMBL3792292, “Development of a potent and selective FLT3 kinase inhibitor by systematic expansion of a non-selective fragment-screening hit” (Bioorg Med Chem Lett, 2016) can be followed below.

Each structure is given as a SMILES string.

The target in experiment [1] is Hepatocyte growth factor receptor (Homo sapiens) (UniProt P08581). As to the kind of experiment: Inhibition of human N-terminal GST-tagged MET cytoplasmic domain (956 to 1390 residues) expressed in baculovirus expression system using fluorescence labelled srctide as substrate at 50 times IC50 by electrophoretic mobility shift assay relative to control. (Mobility shift assays separate free from complexed probe on a gel.)

For experiment [2], the target named is Platelet-derived growth factor receptor alpha (Homo sapiens) (UniProt P16234). The experiment is described as follows: Inhibition of human N-terminal GST-tagged PDGFRalpha cytoplasmic domain (550 to 1089 residues) expressed in baculovirus expression system using fluorescence labelled CSKtide as substrate at 50 times IC50 by electrophoretic mobility shift assay relative to control.

Experiment [3] concerns the target Tyrosine-protein kinase SYK (Homo sapiens) (UniProt P43405). The experiment is described as follows: Inhibition of full length human N-terminal GST-tagged SYK (1 to 635 residues) expressed in baculovirus expression system using fluorescence labelled Blk/Lyntide as substrate at 50 times IC50 by electrophoretic mobility shift assay relative to control.
For experiment [4], the target named is High affinity nerve growth factor receptor (Homo sapiens, UniProt P04629). As to the kind of experiment: Inhibition of human N-terminal GST-tagged TRKA cytoplasmic domain (436 to 790 residues) expressed in baculovirus expression system using fluorescence labelled CSKtide as substrate at 50 times IC50 by electrophoretic mobility shift assay relative to control.

In experiment [5] the target is T1, Serine/threonine-protein kinase Chk1 (Homo sapiens) (UniProt O14757).
T1 sequence (whole entry): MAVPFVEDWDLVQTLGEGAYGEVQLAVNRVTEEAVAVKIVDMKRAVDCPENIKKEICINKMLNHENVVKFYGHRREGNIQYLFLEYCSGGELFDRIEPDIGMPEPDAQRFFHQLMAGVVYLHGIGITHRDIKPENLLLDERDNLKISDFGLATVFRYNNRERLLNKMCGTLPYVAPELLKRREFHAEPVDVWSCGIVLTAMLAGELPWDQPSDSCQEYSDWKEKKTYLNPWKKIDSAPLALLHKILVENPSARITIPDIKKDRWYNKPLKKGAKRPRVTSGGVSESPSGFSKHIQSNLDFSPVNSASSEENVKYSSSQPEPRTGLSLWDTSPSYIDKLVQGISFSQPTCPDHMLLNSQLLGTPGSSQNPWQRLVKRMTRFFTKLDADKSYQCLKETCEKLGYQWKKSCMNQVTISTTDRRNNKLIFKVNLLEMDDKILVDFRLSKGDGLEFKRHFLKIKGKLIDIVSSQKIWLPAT
The experiment is described as follows: Inhibition of full length human N-terminal GST-tagged CHK1 (1 to 476 residues) expressed in baculovirus expression system using fluorescence labelled CHKtide as substrate at 50 times IC50 by electrophoretic mobility shift assay relative to control.

Experiment [6] addresses Casein kinase I isoform epsilon (Homo sapiens) (UniProt P49674). As to the kind of experiment: Inhibition of human N-terminal GST-tagged CK1epsilon catalytic domain (1 to 348 residues) expressed in baculovirus expression system using fluorescence labelled CKtide as substrate at 50 times IC50 by electrophoretic mobility shift assay relative to control.
Experiment [7] has as its target Death-associated protein kinase 1 (Homo sapiens) (UniProt P53355). As to the kind of experiment: Inhibition of human N-terminal GST-tagged DAPK1 catalytic domain (1 to 289 residues) expressed in baculovirus expression system using fluorescence labelled DAPK1tide as substrate at 50 times IC50 by electrophoretic mobility shift assay relative to control.
The target of experiment [8] is Dual specificity tyrosine-phosphorylation-regulated kinase 1B (Homo sapiens) (UniProt Q9Y463). The experiment is described as follows: Inhibition of full length human N-terminal GST-tagged DYRK1B (1 to 629 residues) expressed in baculovirus expression system using fluorescence labelled DYRKtide-F as substrate at 50 times IC50 by electrophoretic mobility shift assay relative to control.

The target in experiment [9] is Mitogen-activated protein kinase 1 (Homo sapiens) (UniProt P28482). The experiment is described as follows: Inhibition of full length human N-terminal GST-tagged ERK2 (1 to 360 residues) expressed in Escherichia coli using fluorescence labelled modified Erktide as substrate at 50 times IC50 by electrophoretic mobility shift assay relative to control.
In experiment [10] the target is T2, Inhibitor of nuclear factor kappa-B kinase subunit beta (Homo sapiens) (UniProt O14920).
T2 sequence (whole entry): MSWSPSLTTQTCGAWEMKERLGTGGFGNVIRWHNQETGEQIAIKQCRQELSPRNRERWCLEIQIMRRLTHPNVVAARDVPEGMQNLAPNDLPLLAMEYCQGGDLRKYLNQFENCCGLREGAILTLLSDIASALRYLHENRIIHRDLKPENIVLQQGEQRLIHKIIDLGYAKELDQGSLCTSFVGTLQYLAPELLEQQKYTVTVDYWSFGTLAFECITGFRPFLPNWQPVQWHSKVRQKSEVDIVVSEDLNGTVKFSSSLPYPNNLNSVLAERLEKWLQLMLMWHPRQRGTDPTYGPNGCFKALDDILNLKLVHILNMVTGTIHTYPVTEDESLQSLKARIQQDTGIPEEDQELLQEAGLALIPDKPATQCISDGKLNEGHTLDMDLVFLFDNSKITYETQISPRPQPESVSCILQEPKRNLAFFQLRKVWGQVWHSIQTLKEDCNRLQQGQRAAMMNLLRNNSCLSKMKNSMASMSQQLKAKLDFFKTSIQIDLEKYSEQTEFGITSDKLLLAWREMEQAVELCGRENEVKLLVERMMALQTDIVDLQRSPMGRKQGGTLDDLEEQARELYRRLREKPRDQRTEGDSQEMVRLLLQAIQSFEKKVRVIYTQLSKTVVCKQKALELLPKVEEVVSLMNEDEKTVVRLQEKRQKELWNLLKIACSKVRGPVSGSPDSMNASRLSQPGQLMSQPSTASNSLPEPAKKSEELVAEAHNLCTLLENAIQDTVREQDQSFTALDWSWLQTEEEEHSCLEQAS
As to the kind of experiment: Inhibition of human N-terminal His-tagged IKKbeta (1 to 662 residues) expressed in baculovirus expression system using fluorescence labelled modified IKBalpha derived peptide substrate at 50 times IC50 by electrophoretic mobility shift assay relative to control.

The target of experiment [11] is Serine/threonine-protein kinase PAK 2 (Homo sapiens) (UniProt Q13177). The experiment is described as follows: Inhibition of full length human N-terminal GST-tagged PAK2 (1 to 524 residues) expressed in baculovirus expression system using fluorescence labelled DAPK1tide as substrate at 50 times IC50 by electrophoretic mobility shift assay relative to control.
The target of experiment [12] is [Pyruvate dehydrogenase (acetyl-transferring)] kinase isozyme 1, mitochondrial (Homo sapiens) (UniProt Q15118). As to the kind of experiment: Inhibition of full length human N-terminal GST-tagged PDK1 (1 to 436 residues) expressed in baculovirus expression system using fluorescence labelled PDHKtide as substrate at 50 times IC50 by electrophoretic mobility shift assay relative to control.

Platelet-derived growth factor receptor alpha (Homo sapiens), sequence (P16234 whole entry, the tested form may be a part): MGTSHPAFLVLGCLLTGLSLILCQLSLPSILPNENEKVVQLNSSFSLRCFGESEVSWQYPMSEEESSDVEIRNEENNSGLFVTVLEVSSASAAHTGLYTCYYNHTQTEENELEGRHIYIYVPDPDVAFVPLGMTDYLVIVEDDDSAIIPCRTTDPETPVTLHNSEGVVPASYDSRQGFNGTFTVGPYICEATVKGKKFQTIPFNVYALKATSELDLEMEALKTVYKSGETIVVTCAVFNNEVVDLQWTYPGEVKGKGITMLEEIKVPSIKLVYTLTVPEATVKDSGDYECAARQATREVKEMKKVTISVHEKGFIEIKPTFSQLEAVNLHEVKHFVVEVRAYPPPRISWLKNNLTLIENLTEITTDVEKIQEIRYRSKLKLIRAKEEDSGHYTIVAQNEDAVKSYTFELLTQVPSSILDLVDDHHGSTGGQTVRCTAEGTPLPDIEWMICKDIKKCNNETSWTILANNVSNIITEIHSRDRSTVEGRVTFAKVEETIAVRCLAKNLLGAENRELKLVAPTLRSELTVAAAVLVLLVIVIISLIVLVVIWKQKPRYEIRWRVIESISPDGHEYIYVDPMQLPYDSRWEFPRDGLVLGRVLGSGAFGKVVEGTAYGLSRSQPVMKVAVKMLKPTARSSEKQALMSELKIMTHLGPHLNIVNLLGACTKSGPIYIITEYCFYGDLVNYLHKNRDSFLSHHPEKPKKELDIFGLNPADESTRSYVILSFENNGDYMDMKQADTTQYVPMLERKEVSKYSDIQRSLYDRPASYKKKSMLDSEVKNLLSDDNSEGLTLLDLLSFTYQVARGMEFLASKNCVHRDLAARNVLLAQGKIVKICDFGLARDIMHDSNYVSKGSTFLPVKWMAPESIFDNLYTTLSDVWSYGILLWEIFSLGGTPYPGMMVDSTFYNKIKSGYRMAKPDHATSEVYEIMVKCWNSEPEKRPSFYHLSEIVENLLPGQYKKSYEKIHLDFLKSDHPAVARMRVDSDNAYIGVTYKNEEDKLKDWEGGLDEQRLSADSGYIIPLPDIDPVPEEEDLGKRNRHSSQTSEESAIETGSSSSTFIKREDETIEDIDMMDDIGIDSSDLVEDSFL
High affinity nerve growth factor receptor, sequence (P04629 33-796 limits assumed): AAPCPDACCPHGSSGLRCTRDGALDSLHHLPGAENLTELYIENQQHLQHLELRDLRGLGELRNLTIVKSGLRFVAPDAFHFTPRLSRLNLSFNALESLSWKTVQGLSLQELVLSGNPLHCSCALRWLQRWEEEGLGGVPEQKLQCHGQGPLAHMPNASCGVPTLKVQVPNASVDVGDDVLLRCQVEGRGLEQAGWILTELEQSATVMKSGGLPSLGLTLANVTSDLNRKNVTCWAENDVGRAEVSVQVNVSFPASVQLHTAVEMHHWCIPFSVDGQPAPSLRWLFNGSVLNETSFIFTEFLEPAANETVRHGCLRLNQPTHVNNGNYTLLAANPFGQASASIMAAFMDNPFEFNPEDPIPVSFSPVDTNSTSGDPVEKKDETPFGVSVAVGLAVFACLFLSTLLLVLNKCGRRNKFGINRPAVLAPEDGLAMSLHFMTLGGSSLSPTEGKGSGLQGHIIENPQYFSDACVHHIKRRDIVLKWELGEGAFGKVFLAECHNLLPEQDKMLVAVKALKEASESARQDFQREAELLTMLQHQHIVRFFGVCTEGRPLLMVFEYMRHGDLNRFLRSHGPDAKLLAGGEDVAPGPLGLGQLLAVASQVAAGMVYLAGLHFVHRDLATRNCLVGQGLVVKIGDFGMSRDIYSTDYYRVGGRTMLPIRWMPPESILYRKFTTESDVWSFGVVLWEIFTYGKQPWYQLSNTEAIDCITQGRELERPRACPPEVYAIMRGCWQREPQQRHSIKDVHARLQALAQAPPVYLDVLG
Mitogen-activated protein kinase 1 (Homo sapiens), sequence (P28482 whole entry, the tested form may be a part): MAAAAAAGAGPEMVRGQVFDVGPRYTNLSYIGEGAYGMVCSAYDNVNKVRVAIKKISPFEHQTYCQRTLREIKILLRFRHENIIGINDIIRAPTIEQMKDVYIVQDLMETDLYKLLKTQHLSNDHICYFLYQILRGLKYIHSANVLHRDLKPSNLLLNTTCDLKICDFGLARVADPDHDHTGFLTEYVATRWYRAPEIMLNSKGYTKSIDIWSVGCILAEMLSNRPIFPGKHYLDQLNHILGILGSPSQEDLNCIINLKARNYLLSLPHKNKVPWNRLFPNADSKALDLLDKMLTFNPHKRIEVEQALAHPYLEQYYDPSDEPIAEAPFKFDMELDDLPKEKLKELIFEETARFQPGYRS
Hepatocyte growth factor receptor (Homo sapiens), sequence (P08581 whole entry, the tested form may be a part): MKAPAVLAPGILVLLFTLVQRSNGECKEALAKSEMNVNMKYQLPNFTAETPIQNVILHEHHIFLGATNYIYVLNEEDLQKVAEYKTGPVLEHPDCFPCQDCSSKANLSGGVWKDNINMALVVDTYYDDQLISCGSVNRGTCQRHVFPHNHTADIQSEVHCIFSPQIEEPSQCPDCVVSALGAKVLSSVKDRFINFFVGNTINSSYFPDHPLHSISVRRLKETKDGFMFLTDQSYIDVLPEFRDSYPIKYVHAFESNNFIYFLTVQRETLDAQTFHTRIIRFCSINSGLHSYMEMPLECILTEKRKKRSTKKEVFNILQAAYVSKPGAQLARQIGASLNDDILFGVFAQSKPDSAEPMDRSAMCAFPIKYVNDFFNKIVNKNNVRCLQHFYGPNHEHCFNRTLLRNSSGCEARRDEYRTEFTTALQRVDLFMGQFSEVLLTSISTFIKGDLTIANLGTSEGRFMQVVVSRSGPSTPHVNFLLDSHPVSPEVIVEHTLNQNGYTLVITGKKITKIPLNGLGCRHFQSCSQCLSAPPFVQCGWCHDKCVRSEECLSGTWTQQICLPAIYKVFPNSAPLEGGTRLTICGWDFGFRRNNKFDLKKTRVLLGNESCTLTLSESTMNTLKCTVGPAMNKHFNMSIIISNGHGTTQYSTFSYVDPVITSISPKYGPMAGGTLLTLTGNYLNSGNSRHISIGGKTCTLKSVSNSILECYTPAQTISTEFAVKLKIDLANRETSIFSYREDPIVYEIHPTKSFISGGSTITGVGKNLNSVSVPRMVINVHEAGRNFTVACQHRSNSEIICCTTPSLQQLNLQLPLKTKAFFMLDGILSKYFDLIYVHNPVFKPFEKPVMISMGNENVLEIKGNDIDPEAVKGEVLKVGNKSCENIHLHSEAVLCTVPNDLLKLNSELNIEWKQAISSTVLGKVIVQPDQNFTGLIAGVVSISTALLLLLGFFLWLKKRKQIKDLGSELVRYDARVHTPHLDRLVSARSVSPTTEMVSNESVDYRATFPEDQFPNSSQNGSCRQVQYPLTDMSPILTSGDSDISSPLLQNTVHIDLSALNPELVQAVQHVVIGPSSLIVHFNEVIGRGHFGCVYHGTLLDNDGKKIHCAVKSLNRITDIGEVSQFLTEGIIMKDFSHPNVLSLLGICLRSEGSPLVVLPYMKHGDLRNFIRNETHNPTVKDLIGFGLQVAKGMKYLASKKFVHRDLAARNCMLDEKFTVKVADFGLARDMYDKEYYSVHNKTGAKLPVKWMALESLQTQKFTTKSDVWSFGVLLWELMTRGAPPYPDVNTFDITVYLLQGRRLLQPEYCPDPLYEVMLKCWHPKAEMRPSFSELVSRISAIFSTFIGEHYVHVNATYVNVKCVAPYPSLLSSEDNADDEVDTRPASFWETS
Casein kinase I isoform epsilon (Homo sapiens), sequence (P49674 whole entry, looked up, the tested form may be a part, canonical isoform): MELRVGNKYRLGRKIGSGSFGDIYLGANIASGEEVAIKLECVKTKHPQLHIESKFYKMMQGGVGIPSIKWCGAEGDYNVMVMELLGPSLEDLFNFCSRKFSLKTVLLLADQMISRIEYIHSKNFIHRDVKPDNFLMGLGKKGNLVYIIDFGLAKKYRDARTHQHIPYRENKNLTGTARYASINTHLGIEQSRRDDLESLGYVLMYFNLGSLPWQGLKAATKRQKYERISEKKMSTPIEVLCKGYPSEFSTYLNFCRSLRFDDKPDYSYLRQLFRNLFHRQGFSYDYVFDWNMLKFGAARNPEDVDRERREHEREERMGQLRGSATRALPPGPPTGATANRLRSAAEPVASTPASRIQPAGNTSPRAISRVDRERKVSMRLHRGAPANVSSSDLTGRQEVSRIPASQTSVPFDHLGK
Dual specificity tyrosine-phosphorylation-regulated kinase 1B (Homo sapiens), sequence (Q9Y463 whole entry, looked up, the tested form may be a part): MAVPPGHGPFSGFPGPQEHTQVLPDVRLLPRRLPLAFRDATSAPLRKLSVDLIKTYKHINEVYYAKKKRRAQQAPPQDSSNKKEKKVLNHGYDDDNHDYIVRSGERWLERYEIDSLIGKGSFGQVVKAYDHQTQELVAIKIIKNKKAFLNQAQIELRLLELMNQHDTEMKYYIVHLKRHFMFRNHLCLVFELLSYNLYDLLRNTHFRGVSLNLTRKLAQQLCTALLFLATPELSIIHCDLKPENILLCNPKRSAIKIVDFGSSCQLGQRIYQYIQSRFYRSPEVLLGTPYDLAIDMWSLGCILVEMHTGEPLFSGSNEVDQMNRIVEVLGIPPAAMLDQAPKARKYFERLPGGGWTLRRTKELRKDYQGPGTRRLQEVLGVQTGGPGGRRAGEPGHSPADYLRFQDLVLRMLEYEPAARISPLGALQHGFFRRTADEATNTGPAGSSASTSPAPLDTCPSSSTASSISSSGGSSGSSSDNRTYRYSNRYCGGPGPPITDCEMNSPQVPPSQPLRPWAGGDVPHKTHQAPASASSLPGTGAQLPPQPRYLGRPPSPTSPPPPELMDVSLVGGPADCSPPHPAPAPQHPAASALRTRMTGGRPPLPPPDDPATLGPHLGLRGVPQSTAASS

In the case of `O=C(Nc1ccc(CN2CCN(c3ccccc3)CC2)cc1)c1n[nH]c2ccccc12`, the inhibition (usually the change of the read-out against control, counted positive when it falls) in experiment [1] is -0.4%; in experiment [2], 9.8%; in experiment [3] it was 29.7%; in [4] it was 80.5%; in experiment [5], 1%; in [6] it was 19.3%. In addition, the inhibition was 8.3% in experiment [7]; 12.7% in experiment [8]; -2.1% in experiment [9]; 0.6% in experiment [10]; 0.6% in experiment [11]; -2.8% in experiment [12].

For the compound `O=C(Nc1ccc(C(=O)N2CCN(c3ccccc3)CC2)cc1)c1n[nH]c2ccccc12`, the inhibition in experiment [1] is -0.6%; in experiment [2], 47.2%; in [3] it was 40.2%; in experiment [4] it was 90.1%; in experiment [5], 8%; in experiment [6] it was 21.3%. The inhibition in [7] is 13%; in experiment [8], 29.4%; in experiment [9] it was -0.8%; in experiment [10], 1.3%; in experiment [11], -1.6%; in experiment [12], 1.9%.

`O=C(Nc1ccccc1)c1n[nH]c2ccccc12`: the inhibition in [1] turned out to be 4.6%; in [2], 26.3%; in [3] it was 73.5%; in [4], 95%; in experiment [5], 10.9%; in experiment [6], 51.3%. Moreover, the inhibition in experiment [7] is 32.9%; in experiment [8], 53.6%; in experiment [9], 7%; in experiment [10], 0.7%; in [11] it was 0.8%; in experiment [12] it was -2.1%.
